Test results from patent US20120283293A1, “Methods of neuroprotection involving Prostaglandin E2 EP4 (PGE2 EP4) receptor activation” (The Board of Trustees of the Leland Stanford Junior …, priority 2011, published 2012).

What was measured:
[1] = test system: plasma cytokine and chemokine levels; experiment: plasma multi-analyte analysis in LPS-stimulated mice; type: in vivo, mouse; details: LPS 5 mg/kg i.p., AE1-329 300 μg/kg s.c.
Method: The murine in vivo studies were conducted in accordance with the National Institutes of Health guidelines for the use of experimental animals and protocols were approved by the Institutional Animal Care and Use Committee. C57B6 EP4 floxed mice (Schneider et al., 2004) were kindly provided by Drs. Richard and Matthew Breyer (Vanderbilt University School of Medicine, Nashville, Tenn.), and C57B6 Cd11bCre mice (Boillee et al., 2006) were kindly provided by Dr. G. Kollias (Alexander Fleming Biomedical Sciences Research Center, Vari, Greece) and Dr. Donald Cleveland (UCSD, San Diego, Calif.). All mice were housed in an environment controlled for lighting (12 hour light/dark cycle), temperature, and humidity, with food and water available ad libitum. Cd11bCre:EP4f/f and Cd11bCre:EP4+/+ mice were generated by serial crosses of C57B6 Cd11bCre and EP4f/f and EP4+/+ lines. Male Cd11bCre: EP4f/f and Cd11bCre: EP4+/+ mice were treated with either saline or LPS (5 mg/kg intraperitoneally: n=5-8 per group, 13 months of age). 24 hours after injection, mice were euthanized and brain tissue was harvested and frozen at −80° C. For pharmacological experiments, C57B6 male mice (Jackson Laboratories, Bar Harbor, Me.; n=7 or 8 per group) received an injection of saline or LPS (5 mg/kg, i.p.+/−vehicle or AE1-329 ([…]) (Qin et al., 2007; Nagamatsu et al., 2006). Mice were euthanized 6 hours later, and brain tissue was harvested and frozen at −80° C. For collection of plasma, C57B6 male mice (n=5 per group) received an injection of saline or LPS (5 mg/kg, i.p.)+/−AE1-329 ([…].) or vehicle. […] Plasma was collected after centrifugation at 1000×g for 10 min at 4° C. and frozen at −80° C.
Plasma was analyzed using the Rodent MAP™ Antigens, Version 2.0 multi-analyte profile (Rules Based Medicine, Austin, Tex.) that screens a total of 59 blood secreted proteins using multiplex fluorescent immunoassay.
Data are presented as mean±standard error of the mean and analyzed using analysis of variance or Student's t test. Prism software (GraphPad Software, Inc. San Diego, Calif.) was used for statistical analyses. Data for Griess assays and quantitative Western analyses were analyzed using one-way or two-way ANOVA, followed by Newman-Keuls multiple comparison or Bonferroni posttest analysis, respectively. For plasma multi-analyte analysis, the concentrations of the 15 plasma proteins that reached statistical significance between LPS+vehicle versus LPS+AE1-329 cohorts were transformed to relative concentrations (Median Z-score). Cluster analysis (Gene Cluster3.0, University of Tokyo, Tokyo and Java TreeView 1.0.13, Alok Saldanda, Calif.) produced a separation of samples according to treatment group and protein levels in plasma. […]

EP4 receptor = details: Suzawa et al., 2000; Shibuya et al., 2002; cited from earlier work
[2] = test system: IKK phosphorylation in BV-2 cells; experiment: phospho-IKK quantitative Western in LPS-stimulated BV-2 cells; type: cell-based, murine; details: LPS 100 ng/ml, AE1-329 100 nM
Method: Nuclear and cytoplasmic fractions of BV-2 cells were prepared at several time points after treatment (0-120 minutes) using the nuclear extract kit from Active Motif (Carlsbad, Calif.). Briefly, cells were washed, collected in ice-cold PBS in the presence of phosphatase inhibitors, and centrifuged at 300×g for 5 min at 4° C. Cell pellets were resuspended in hypotonic buffer, treated with detergent, and centrifuged at 14,000×g for 30 sec at 4° C. After collection of the cytoplasmic fraction, nuclei were solubilized for 30 min in lysis buffer containing protease inhibitors. Lysates were centrifuged at 14,000×g for 30 min at 4° C. and supernatants were collected for NF-κB studies. To prepare whole cell lysates for phospho-Akt and phospho-IKK studies, cells were washed in ice-cold PBS and lysed in 20 mM Tris-HCl, pH 7.5, 150 mM NaCl, 1 mM Na2EDTA, 1 mM EGTA, 1% Triton, 2.5 mM sodium pyrophosphate, 1 mM β-glycerophosphate, 1 mM orthovanadate, 1 μg/ml leupeptin and 1 mM PMSF. […] All protein concentrations were determined using the Bradford protein assay.
Western blot analysis. […] Immunoreactivity was detected using either sheep anti-rabbit or sheep anti-mouse HRP-conjugated secondary antibody (Amersham Biosciences, Arlington Heights, Ill.), followed by enhanced chemiluminescence (Pierce). Autoradiographic signals were quantified using NIH Image. […]

## COCc1ccccc1CC[C@H](O)/C=C/[C@H]1[C@H](O)CC(=O)[C@@H]1SCCCSCC(=O)O [AE1-329]
[1]; 3 hours
  plasma levels of IL-10: significantly increased plasma levels
  plasma levels of TNF-α, IL-1α, eotaxin, MDC, MIP-1α, MIP-1β, MIP-1γ, MIP-2, MCP-1, MCP-3 and MCP-5: significantly decreased levels
  plasma myeloperoxidase: reduced secreted levels
[1]; printed 'at 6 h'
  plasma levels of IL-6 and LIF: trend towards decreased levels
EP4 receptor
  selectivity for the EP4 receptor: selectivity for the EP4 receptor has been previously established
[2]
  LPS-induced phosphorylation of IKK: attenuated
